We go through one compound from BindingDB's records for doi:10.1021/jm00129a030 (Takeda Chemical Industries, 1989).

The structures appear in SMILES notation.

The target of the assay is Thromboxane A2 receptor (Cavia porcellus). Description: In vitro concentration that reduced specific binding of [3H][…] to guinea pig platelet receptor, Thromboxane A2 receptor by 50%.

Turning to `CCCCC[C@H](O)/C=C/[C@@H]1[C@@H](C/C=C\CCCC(=O)O)[C@H]2CO[C@@H]1C2` [(Z)-7-((1R,4S,5S,6R)-6-((S,E)-3-hydroxyoct-1-enyl)-2-oxabicyclo[2.2.1]heptan-5-yl)hept-5-enoic acid], the half-inhibitory concentration (IC50) (in general, the midpoint of a concentration-inhibition curve) came to 31 nM.
